Data: patent US8642657B2 (Gruenenthal GmbH, priority 2003, dated 2014)

Legend:
[1] = target: T1, rat VR1 (Rattus norvegicus, UniProt O35433); assay: 45Ca2+-uptake assay in CHO/VR1 cells, antagonism of capsaicin-stimulated uptake; type: cell-based; details: 45Ca2+ uptake stimulated by 50 nM capsaicin
T1 construct: expressed in transfected cells
Protocol: (§1) Initial stocks were dissolved in DMSO. For the binding assays, compounds were diluted in with DPBS with Ca^2+ and Mg^2+ and 0.25 mg/mL bovine serum albumin. For the calcium uptake assays, compounds were diluted in DMEM with 0.25 mg/mL bovine serum albumin.
Molecules were characterized to determine whether they were full agonists, partial agonists, or antagonists. For studies of ^45Ca^2+ uptake by CHO/VR1 cells (Tet-off cells), the cells were plated in 24-well plates to yield a cell density 20-40% of that required to produce confluence. The next day the medium was changed to remove the tetracycline and induce VR1 expression. Experiments were performed approximately 36-40 hours after induction. For ^45Ca^2+ uptake assay, cells were incubated for 5 min at 37° C. in a total volume of 400 μL of serum free DMEM (containing 1.8 mM CaCl2) in the presence of 0.25 mg/mL BSA (Sigma), 1 μCi/mL ^45Ca^2+ (5-30 Ci/g from ICN, CA), and increasing concentrations of the compound to be tested. Immediately after the incubation, extracellular ^45Ca^2+ was removed by washing the cells three times with cold DPBS (containing 1.8 mM CaCl2). Then 400 μl RIPA buffer (50 mM Tris pH 7.4; 150 mM NaCl; 1% Triton X-100; 0.1% SDS; 1% sodium deoxycholate) was added to each well in order to lyse the cells. Plates were shaken slowly for 20 min; then 306 μL of cell lysate was transferred from each well into a scintillation vial and radioactivity was determined by scintillation counting. For each data point in each experiment, four wells were assayed. Data from these experiments were analyzed by computer fit to the Hill equation. At least 3 separate experiments were carried out for each compound. In order to determine antagonist activity, studies were performed in exactly the same fashion with the exception that 50 nM capsaicin was added to the assay mixture to stimulate ^45Ca^2+ uptake.

[2] = target: T1, rat VR1; assay: [3H]resiniferatoxin (RTX) competition binding assay, VR1-transfected CHO cells
Protocol: The pUHG102 VR1 plasmid was transfected into CHO cells containing the pTet Off regulatory plasmid (Clontech). In these cells, expression of the VR1 is repressed in the presence of tetracycline but is induced upon removal of the antibiotic. Stable clones were isolated in culture medium containing puromycin (10 μg/mL) and maintained in HAM F12 medium supplemented with tetracycline (1 μg/mL), 5 μg/ml geniticin, 25 mM HEPES, 10% FBS. Cells utilized for assays were grown in culture medium without antibiotic for 48 h before use. Cells were seeded in T75 cell culture flasks in media without antibiotics and grown to approximately 90% confluence. The flasks were then washed with PBS and harvested in 0.25% trypsin, 1 mM EDTA. The cells were pelleted by gentle centrifugation and stored at −20° C. until assay.
Competition Binding Assay
Binding studies with [^3H]resiniferatoxin (RTX) were carried out as described previously with minor modifications (Szallasi et al., 1992). Binding assay mixtures were set up on ice and contained 50-100 pM [^3H]RTX, various concentrations of competing ligands, 0.25 mg/mL BSA (Cohn fraction V), and about 5×10^5 VR1-transfected cells. The final volume was adjusted to 350 μL with DPBS with Ca^2+ and Mg^2+ and 0.25 mg/mL bovine serum albumin. Non-specific binding was determined in the presence of 100 nM nonradioactive RTX. The binding reaction was initiated by transferring the assay mixtures to a 37° C. water bath and was terminated after a 60 min incubation period by cooling the tubes on ice. To reduce non-specific binding, 200 μg/ml α-glycoprotein was added. Membrane-bound RTX was then separated from the free by pelleting the membranes in a Beckman 12 benchtop centrifuge (15 min, maximal velocity), the tips of the tubes containing the pellets were cut off, and the radioactivity was determined by scintillation counting. Equilibrium binding parameters (Ki and cooperativity) were determined by fitting the Hill equation to the measured values with the aid of the program MicroCal Origin 6.0.
as §1

[3] = competition with [3H]RTX, rat VR1 in CHO cells, read-out: Ki (nM) Binding Affinity

T1 sequence (O35433 whole entry): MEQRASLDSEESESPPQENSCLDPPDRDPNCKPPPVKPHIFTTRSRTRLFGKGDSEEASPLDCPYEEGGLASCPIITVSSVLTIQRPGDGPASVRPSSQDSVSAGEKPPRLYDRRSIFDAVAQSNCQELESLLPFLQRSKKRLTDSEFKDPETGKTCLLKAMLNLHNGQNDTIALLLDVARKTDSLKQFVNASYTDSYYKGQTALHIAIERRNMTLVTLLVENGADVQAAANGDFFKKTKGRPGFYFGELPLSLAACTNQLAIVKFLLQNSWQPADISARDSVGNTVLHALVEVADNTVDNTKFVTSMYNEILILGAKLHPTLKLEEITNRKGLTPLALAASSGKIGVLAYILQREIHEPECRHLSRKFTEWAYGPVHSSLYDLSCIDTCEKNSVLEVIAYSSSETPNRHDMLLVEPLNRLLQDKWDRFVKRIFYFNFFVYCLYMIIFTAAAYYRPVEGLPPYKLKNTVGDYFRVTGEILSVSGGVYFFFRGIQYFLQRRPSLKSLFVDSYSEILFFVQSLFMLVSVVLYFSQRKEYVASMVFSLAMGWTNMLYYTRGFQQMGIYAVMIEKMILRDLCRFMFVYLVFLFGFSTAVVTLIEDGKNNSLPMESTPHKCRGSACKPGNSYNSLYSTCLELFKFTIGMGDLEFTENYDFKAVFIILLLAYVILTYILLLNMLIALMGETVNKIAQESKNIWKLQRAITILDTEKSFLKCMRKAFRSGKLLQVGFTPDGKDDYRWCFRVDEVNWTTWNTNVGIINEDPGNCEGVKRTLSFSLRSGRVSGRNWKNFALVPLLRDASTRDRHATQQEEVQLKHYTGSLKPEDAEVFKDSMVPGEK

Compound | melting point | Ki [1] | Ki [2, 3] | Ki [2]
CC(C(=O)NCc1ccc(C(F)(F)F)cc1)c1ccc(NS(C)(=O)=O)c(F)c1 (stereo not drawn) [4-10, N-(4-Trifluoromethylbenzyl)-2-[3-fluoro-4-(methylsulfonylamino)phenyl]propionamide] | 150 to 152 °C | 274 nM | 657 nM | –
Cc1ccc(CCCNC(=O)C2(c3ccc(NS(C)(=O)=O)cc3)CC2)cc1C [12-4, N-[3-(3,4-Dimethylphenyl)propyl]-1-[4-(methylsulfonylamino)phenyl]cyclopropanecarboxamide] | 127 to 128 °C | 1100 nM | – | 1740 nM
CC(C)c1ccc(CNC(=O)C(C)c2ccc(NS(C)(=O)=O)c(F)c2)cc1 (stereo not drawn) [4-8, N-(4-Isopropylbenzyl)-2-[3-fluoro-4-(methylsulfonylamino)phenyl]propionamide] | 137 to 139 °C | 143 nM | 127 nM | –
CC(C(=O)NCc1ccc(C(C)(C)C)cc1)c1ccc(NS(C)(=O)=O)cc1F (stereo not drawn) [1-66, N-(4-tert-Butylbenzyl)-2-[2-fluoro-4-(methylsulfonylamino)phenyl]propionamide] | 111 to 113 °C | 120 nM | 358 nM | –
CC(C(=O)NCc1ccc(-c2ccccc2)cc1)c1ccc(NS(C)(=O)=O)c(F)c1 (stereo not drawn) [4-11, N-(4-Biphenylmethyl)-2-[3-fluoro-4-(methylsulfonylamino)phenyl]propionamide] | 155 to 157 °C | 261 nM | 1750 nM | –
CC(NC(=O)NCc1ccc(C(C)(C)C)cc1)c1ccc(NS(C)(=O)=O)c(F)c1 (stereo not drawn) [23-2, N-(4-t-Butylbenzyl)-N′-{1-[3-fluoro-4-(methylsulfonylamino)phenyl]ethyl}urea] | 152 to 154 °C | 298 nM | – | 447 nM
COc1cc(C(C)C(=O)NCC(COC(=O)C(C)(C)C)Cc2ccc(C)c(C)c2)ccc1NS(C)(=O)=O (stereo not drawn) [5-5, N-[2-(3,4-Dimethylbenzyl)-3-pivaloyloxypropyl]-2-[3-methoxy-4-(methylsulfonylamino)phenyl]propionamide] | 54 to 57 °C | 13.6 nM | 71.2 nM | –
CC(C(=O)NCc1cccc2ccccc12)c1ccc(NS(C)(=O)=O)c(F)c1 (stereo not drawn) [4-12, N-(1-Naphthylmethyl)-2-[3-fluoro-4-(methylsulfonylamino)phenyl]propionamide] | 159 to 161 °C | 239 nM | 959 nM | –
CC(C)(C)c1ccc(CNC(=S)NC(C)(C)c2ccc(NS(C)(=O)=O)c(F)c2)cc1 [21-8, N-(4-t-Butylbenzyl)-N′-{1-methyl-1-[3-fluoro-4-(methylsulfonylamino)phenyl]ethyl}thiourea] | 83 to 85 °C | 983 nM | 7740 nM | –
Cc1ccc(CCCNC(=O)C(C)(C)c2ccc(NS(C)(=O)=O)c(F)c2)cc1C [9-5, N-[3-(3,4-Dimethylphenyl)propyl]-2-[3-fluoro-4-(methylsulfonylamino)phenyl]-2-methylpropionamide] | 145 to 146 °C | 418 nM | – | 960 nM
C[C@@H](NC(=S)NC[C@H](COC(=O)C(C)(C)C)Cc1ccc(C(C)(C)C)cc1)c1ccc(NS(C)(=O)=O)cc1 [18-11, N-[(2R)-2-(4-tert-Butylbenzyl)-3-(pivaloyloxy)propyl]-N′-{(1R)-1-[4-(methylsulfonylamino)phenyl]ethyl}thiourea] | 85 to 87 °C | 53 nM | – | 15.7 nM
C[C@H](C(=O)NC[C@@H](COC(=O)C(C)(C)C)Cc1ccc(C(C)(C)C)cc1)c1ccc(NS(C)(=O)=O)c(F)c1 [6-10, N-[(2S)-2-(4-t-Butylbenzyl)-3-(pivaloyloxy)propyl]-(2S)-2-[3-fluoro-4-(methylsulfonylamino)phenyl]propionamide] | 43 to 45 °C | 10.9 nM | – | 6.58 nM
CC(C)(C)c1ccc(CNC(=S)NC(Cc2ccccc2)c2ccc(NS(C)(=O)=O)c(F)c2)cc1 (stereo not drawn) [20-15, N-(4-t-Butylbenzyl)-N′-{1-[4-(methylsulfonylamino)-3-fluorophenyl]-2-phenylethyl}thiourea] | 116 °C | 695 nM | 1740 nM | –
CC(C(=O)NCC(COC(=O)C(C)(C)C)Cc1ccc(C(C)(C)C)cc1)c1ccc(NS(C)(=O)=O)cc1 (stereo not drawn) [5-2, N-[2-(4-t-Butylbenzyl)-3-pivaloyloxypropyl]-2-[4-(methylsulfonylamino)phenyl]propionamide] | 97 to 100 °C | 52 nM | 55.2 nM | –
C[C@@H](NC(=S)NC[C@@H](COC(=O)C(C)(C)C)Cc1ccc(C(C)(C)C)cc1)c1ccc(NS(C)(=O)=O)cc1 [18-12, N-[(2S)-2-(4-tert-Butylbenzyl)-3-(pivaloyloxy)propyl]-N′-{(1R)-1-[4-(methylsulfonylamino)phenyl]ethyl}thiourea] | 88 to 90 °C | 30.6 nM | – | 8.09 nM
COC(=O)c1cc(C(C)C(=O)NCc2ccc(C(C)(C)C)cc2)ccc1NS(C)(=O)=O (stereo not drawn) [1-59, N-(4-tert-Butylbenzyl)-2-[3-(methoxycarbonyl)-4-(methylsulfonylamino)phenyl]propionamide] | 142 to 144 °C | 951 nM | 1610 nM | –
CCC(NC(=S)NCc1ccc(C(C)(C)C)cc1)c1ccc(NS(C)(=O)=O)c(F)c1 (stereo not drawn) [20-12, N-(4-t-Butylbenzyl)-N′-{1-[4-(methylsulfonylamino)-3-fluorophenyl]propyl}thiourea] | 85 °C | 54.3 nM | 230 nM | –
CC(C)C(NC(=S)NCc1ccc(C(C)(C)C)cc1)c1ccc(NS(C)(=O)=O)c(F)c1 (stereo not drawn) [20-13, N′-(4-t-Butylbenzyl)-N-{1-[4-(methylsulfonylamino)-3-fluorophenyl]-2-methylpropyl}thiourea] | 84 °C | 223 nM | 338 nM | –
CC(NC(=O)CCc1ccc(C(C)(C)C)cc1)c1ccc(NS(C)(=O)=O)c(F)c1 (stereo not drawn) [24-2, N-{1-[3-Fluoro-4-(methylsulfonylamino)phenyl]ethyl}-3-(4-tert-butylphenyl)propanamide] | 152 to 154 °C | 103 nM | 376 nM | –
Cc1ccc(CC(CNC(=O)C(C)c2ccc(NS(C)(=O)=O)c(F)c2)COC(=O)C(C)(C)C)cc1C (stereo not drawn) [5-3, 2-[3-Fluoro-4-(methylsulfonylamino)phenyl]-N-[2-(3,4-dimethylbenzyl)-3-pivaloyloxypropyl]propionamide] | 46 to 48 °C | 10.8 nM | 33.1 nM | –
C[C@@H](NC(=S)NCC(COC(=O)C(C)(C)C)Cc1ccc(C(C)(C)C)cc1)c1ccc(NS(C)(=O)=O)cc1 (stereo partly drawn) [18-10, N-[2-(4-tert-Butylbenzyl)-3-(pivaloyloxy)propyl]-N′-{(1R)-1-[4-(methylsulfonylamino)phenyl]ethyl}thiourea] | 88 to 90 °C | 23.9 nM | – | 9.95 nM
C[C@@H](NC(=S)NC[C@H](COC(=O)C(C)(C)C)Cc1ccccc1)c1ccc(NS(C)(=O)=O)cc1 [18-1, N-[(2R)-2-Benzyl-3-(pivaloyloxy)propyl]-N′-{(1R)-1-[4-(methylsulfonylamino)phenyl]ethyl}thiourea] | 62 to 64 °C | 44.5 nM | – | 22.7 nM
COc1cc(C2(C(=O)NCc3ccc(C(C)(C)C)cc3)CC2)ccc1NS(C)(=O)=O [12-9, N-(4-tert-Butylbenzyl)-1-[3-methoxy-4-(methylsulfonylamino)phenyl]cyclopropanecarboxamide] | 200 to 203 °C | 2250 nM | 745 nM | –
